Data as given in publication PMC4747383, “Design of a peptidic inhibitor that targets the dimer interface of a prototypic galectin” (Oncotarget, 2015).

Test system: PBMCs
Experiment: hGal-7-induced apoptosis of PBMCs, PARP-1 cleavage (Western blot)
Format: cell-based, human
Conditions: increasing hGal-7 pre-incubated with peptide 200 μM, 4 h at 37°C, serum-free, two independent experiments
Method: The Jurkat cell line was maintained in RPMI 1640 medium. The culture medium was supplemented with 10% [v/v] fetal bovine serum, 2 mmol/L L-glutamine, 10 mM HEPES buffer, and 1 mM sodium pyruvate. All cell culture products were purchased from Life Technologies (Burlington, ON, Canada). Isolation of peripheral mononuclear cell (PBMCs) was performed as previously described.
For the apoptosis tests, whole-cell extracts were homogenized and resuspended in RIPA buffer (Thermo Fisher Scientific, Rockford, IL, USA) containing protease inhibitors (Roche, Laval, QC, Canada). Equal amounts of whole-cell extracts (25 μg) were separated on SDS-PAGE and transferred onto nitrocellulose membranes (Bio-Rad Laboratories). The membranes were first blocked with 5% milk [w/v] in TBS/0.5% Tween 20 [v/v] for 1 h at room temperature and subsequently blotted overnight in a solution of TBS containing 3% BSA [w/v] and 0.5% Tween 20 [v/v]. The following antibodies were used: a rabbit anti-poly-(ADP-ribose) polymerase (PARP)-1 (p25) polyclonal antibody (1:5000; Epitomics, Burlingame, CA, USA) and a mouse anti-β-actin (1:10000; Sigma-Aldrich, St. Louis, MO, USA). […]
concentrations of recombinant human gaI-7 were pre-incubated with the hGaI-7129–135 (200 μM) prior to its addition to A. Jurkat T cells or B. PBMCs. Apoptosis wa, measured after 4 h at 37°C in serum·free conditions. […]

“H-LDSVRIP-NH2 [hGal-7(129–135), peptide corresponding to hGal-7 segment between residues 129–135]” was tested, and the “inhibition of hGal-7-induced apoptosis in PBMCs (PARP-1 cleavage)” value was “also observed using human peripheral blood monocytes” and the “inhibition of hGal-7-induced apoptosis in PBMCs (PARP-1 cleavage)” value (listed as hGaI-7129–135) was “decreases gaI-7-induced apoptosis”.
